# According to patent US6737383B1, “Herbicidal oxadiazolidines” (priority 1999, dated 2004):
# Tests used:
# blackgrass = experiment: Test B pre/postemergence blackgrass; assay type: in vivo, Alopecurus myosuroides
# In short: (§1)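 Herbicidal effect was estimated by eye on a ten-point control scale after plants spent twelve to sixteen days in a greenhouse following soil or foliar treatment. Foliar sprays targeted plants at one to four leaves; all doses were formulated in a non-phytotoxic solvent with surfactant.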
# surinam grass = experiment: Test B pre/postemergence surinam grass; assay type: in vivo, Brachiaria decumbens
# In short: as §1
# cocklebur = experiment: Test B pre/postemergence cocklebur; assay type: in vivo, Xanthium strumarium
# In short: as §1
# corn = experiment: Test B pre/postemergence corn; assay type: in vivo, Zea mays
# In short: as §1
# crabgrass = experiment: Test B pre/postemergence crabgrass; assay type: in vivo, Digitaria sanguinalis
# In short: as §1
# giant foxtail = experiment: Test B pre/postemergence giant foxtail; assay type: in vivo, Setaria faberii
# In short: as §1
# morningglory = experiment: Test B pre/postemergence morningglory; assay type: in vivo, Ipomoea hederacea
# In short: as §1
# pigweed = experiment: Test B pre/postemergence pigweed; assay type: in vivo, Amaranthus retroflexus
# In short: as §1
# rape = experiment: Test B pre/postemergence rape; assay type: in vivo, Brassica napus
# In short: as §1
# soybean = experiment: Test B pre/postemergence soybean; assay type: in vivo, Glycine max
# In short: as §1
# sugar beet = experiment: Test B pre/postemergence sugar beet; assay type: in vivo, Beta vulgaris
# In short: as §1
# velvetleaf = experiment: Test B pre/postemergence velvetleaf; assay type: in vivo, Abutilon theophrasti
# In short: as §1
# wheat = experiment: Test B pre/postemergence wheat; assay type: in vivo, Triticum aestivum
# In short: as §1
# wild oat = experiment: Test B pre/postemergence wild oat; assay type: in vivo, Avena fatua
# In short: as §1
# purple nutsedge = experiment: Test B pre/postemergence purple nutsedge; assay type: in vivo, Cyperus rotundus
# In short: as §1
# rice = experiment: Test B flood test rice; assay type: in vivo, Oryza sativa
# In short: (§2)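 Flood test on plants grown to the 2-leaf stage; treated plants kept in greenhouse twelve to sixteen days, then visually rated against controls on a 0 (no effect) to 10 (complete control) scale.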
# smallflower flatsedge = experiment: Test B flood test smallflower flatsedge; assay type: in vivo, Cyperus difformis
# In short: as §2
# duck salad = experiment: Test B flood test duck salad; assay type: in vivo, Heteranthera limosa
# In short: as §2
# bamyardgrass = experiment: Test B flood test barnyardgrass; assay type: in vivo, Echinochloa crus-galli
# In short: as §2
# [1] = Postemergence, Rate 62 g/ha, scale 0 to 10, 0 is no effect, 10 is complete control
# [2] = Postemergence, Rate 125 g/ha, scale of 0 to 10 where 0 is no effect and 10 is complete control
# [3] = Postemergence, Rate 250 g/ha, scale of 0 to 10, 0 is no effect, 10 is complete control
# [4] = Preemergence, Rate 62 g/ha, scale of 0 to 10 where 0 is no effect and 10 is complete control
# [5] = Preemergence, Rate 125 g/ha, scale of 0 to 10 where 0 is no effect and 10 is complete control
# [6] = Preemergence, Rate 250 g/ha, scale 0 to 10 (0 no effect, 10 complete control)
# [7] = Preemergence, Rate 500 g/ha, scale of 0 to 10 where 0 is no effect and 10 is complete control
# [8] = Rate 500 g/ha, Postemergence, scale 0 to 10, 0 is no effect, 10 is complete control
# [9] = Rate 62 g/ha, flood test species, Pre-emergence, visual evaluation after twelve to sixteen days
# [10] = Rate 125 g/ha, under heading Pre-emergence, flood test species, visual evaluation after twelve to sixteen days
# [11] = Rate 250 g/ha, Pre-emergence (flood test species), scale 0 to 10, 0 is no effect, 10 is complete control
# [12] = Rate 500 g/ha, Pre-emergence section of Table B, 0 to 10 scale (0 no effect, 10 complete control)
smiles,measurement,setting,value
C#CC(C)n1c(=O)on(C(=O)N(c2ccc(F)cc2F)C(C)C)c1=O (racemic) [Compound 657],"Plant response rating, Blackgrass",blackgrass; [1],6
same,Blackgrass plant response rating,blackgrass; [2],8
same,Blackgrass plant response rating,blackgrass; [3],8
same,Blackgrass plant response rating,blackgrass; [4],5
same,Blackgrass plant response rating,blackgrass; [5],9
same,"Plant response rating, Blackgrass",blackgrass; [6],7
same,"Plant response rating, Blackgrass",blackgrass; [7],9
same,Blackgrass plant response rating,blackgrass; [8],8
same,"Plant response rating, B. signalgrass",surinam grass; [1],0
same,"Plant response rating, B. signalgrass",surinam grass; [2],2
same,B. signalgrass plant response rating,surinam grass; [3],4
same,B. signalgrass plant response rating,surinam grass; [4],2
same,B. signalgrass plant response rating,surinam grass; [5],8
same,"Plant response rating, B. signalgrass",surinam grass; [6],9
same,"Plant response rating, B. signalgrass",surinam grass; [7],10
same,B. signalgrass plant response rating,surinam grass; [8],6
same,"Plant response rating, Cocklebur",cocklebur; [1],0
same,Cocklebur plant response rating,cocklebur; [2],2
same,Cocklebur plant response rating,cocklebur; [3],4
same,Cocklebur plant response rating,cocklebur; [4],0
same,Cocklebur plant response rating,cocklebur; [5],0
same,"Plant response rating, Cocklebur",cocklebur; [6],2
same,"Plant response rating, Cocklebur",cocklebur; [7],2
same,Cocklebur plant response rating,cocklebur; [8],5
same,"Plant response rating, Corn",corn; [1],1
same,Corn plant response rating,corn; [2],1
same,Corn plant response rating,corn; [3],1
same,Corn plant response rating,corn; [4],0
same,Corn plant response rating,corn; [5],1
same,"Plant response rating, Corn",corn; [7],8
same,Corn plant response rating,corn; [8],1
same,"Plant response rating, Crabgrass",crabgrass; [1],3
same,Crabgrass plant response rating,crabgrass; [2],8
same,Crabgrass plant response rating,crabgrass; [3],9
same,Crabgrass plant response rating,crabgrass; [4],3
same,Crabgrass plant response rating,crabgrass; [5],10
same,"Plant response rating, Crabgrass",crabgrass; [6],9
same,"Plant response rating, Crabgrass",crabgrass; [7],9
same,Crabgrass plant response rating,crabgrass; [8],9
same,"Plant response rating, Giant foxtail",giant foxtail; [1],5
same,Giant foxtail plant response rating,giant foxtail; [2],8
same,Giant foxtail plant response rating,giant foxtail; [3],7
same,Giant foxtail plant response rating,giant foxtail; [4],10
same,Giant foxtail plant response rating,giant foxtail; [5],10
same,"Plant response rating, Giant foxtail",giant foxtail; [6],9
same,"Plant response rating, Giant foxtail",giant foxtail; [7],9
same,Giant foxtail plant response rating,giant foxtail; [8],8
same,"Plant response rating, Morningglory",morningglory; [1],2
same,Morningglory plant response rating,morningglory; [2],5
same,Morningglory plant response rating,morningglory; [3],5
same,Morningglory plant response rating,morningglory; [4],1
same,Morningglory plant response rating,morningglory; [5],1
same,"Plant response rating, Morningglory",morningglory; [6],4
same,"Plant response rating, Morningglory",morningglory; [7],6
same,Morningglory plant response rating,morningglory; [8],9
same,"Plant response rating, Redroot pigweed",pigweed; [1],0
same,Redroot pigweed plant response rating,pigweed; [2],2
same,Redroot pigweed plant response rating,pigweed; [4],7
same,Redroot pigweed plant response rating,pigweed; [5],10
same,"Plant response rating, Redroot pigweed",pigweed; [6],10
same,"Plant response rating, Redroot pigweed",pigweed; [7],10
same,Redroot pigweed plant response rating,pigweed; [8],7
same,"Plant response rating, Rape",rape; [1],0
same,Rape plant response rating,rape; [2],2
same,Rape plant response rating,rape; [4],3
same,Rape plant response rating,rape; [5],3
same,"Plant response rating, Rape",rape; [6],10
same,"Plant response rating, Rape",rape; [7],10
same,Rape plant response rating,rape; [8],3
same,"Plant response rating, Soybean",soybean; [1],1
same,Soybean plant response rating,soybean; [2],1
same,Soybean plant response rating,soybean; [4],0
same,Soybean plant response rating,soybean; [5],0
same,"Plant response rating, Soybean",soybean; [7],3
same,"Plant response rating, Sugarbeets",sugar beet; [1],0
same,Sugarbeets plant response rating,sugar beet; [2],0
same,Sugarbeets plant response rating,sugar beet; [4],7
same,Sugarbeets plant response rating,sugar beet; [5],7
same,"Plant response rating, Sugarbeets",sugar beet; [6],10
same,"Plant response rating, Sugarbeets",sugar beet; [7],9
same,Sugarbeets plant response rating,sugar beet; [8],3
same,"Plant response rating, Velvetleaf",velvetleaf; [1],2
same,Velvetleaf plant response rating,velvetleaf; [2],3
same,Velvetleaf plant response rating,velvetleaf; [4],3
same,Velvetleaf plant response rating,velvetleaf; [5],4
same,"Plant response rating, Velvetleaf",velvetleaf; [6],8
same,"Plant response rating, Velvetleaf",velvetleaf; [7],10
same,Velvetleaf plant response rating,velvetleaf; [8],4
same,"Plant response rating, Wheat",wheat; [1],0
same,Wheat plant response rating,wheat; [2],0
same,Wheat plant response rating,wheat; [4],0
same,Wheat plant response rating,wheat; [5],0
same,"Plant response rating, Wheat",wheat; [6],0
same,"Plant response rating, Wheat",wheat; [7],7
same,Wheat plant response rating,wheat; [8],5
same,"Plant response rating, Wild oats",wild oat; [1],1
same,Wild oats plant response rating,wild oat; [2],2
same,Wild oats plant response rating,wild oat; [4],3
same,Wild oats plant response rating,wild oat; [5],6
same,"Plant response rating, Wild oats",wild oat; [6],8
same,"Plant response rating, Wild oats",wild oat; [7],8
same,Wild oats plant response rating,wild oat; [8],2
same,Nutsedge plant response rating,purple nutsedge; [2],3
same,Nutsedge plant response rating,purple nutsedge; [4],0
same,Nutsedge plant response rating,purple nutsedge; [5],0
same,"Plant response rating, Nutsedge",purple nutsedge; [6],5
same,"Plant response rating, Nutsedge",purple nutsedge; [7],6
same,"Plant response rating, Rice (0 to 10 scale, 0 is no effect, 10 is complete control)",rice; [9],0
same,"Rice plant response rating (0 to 10 scale, 0 is no effect, 10 is complete control)",rice; [10],0
same,Rice plant response rating,rice; [11],0
same,Rice plant response rating,rice; [12],0
same,"Plant response rating, S. Flatsedge (0 to 10 scale, 0 is no effect, 10 is complete control)",smallflower flatsedge; [9],0
same,"S. Flatsedge plant response rating (0 to 10 scale, 0 is no effect, 10 is complete control)",smallflower flatsedge; [10],0
same,S. Flatsedge plant response rating,smallflower flatsedge; [11],0
same,S. Flatsedge plant response rating,smallflower flatsedge; [12],0
same,"Plant response rating, Ducksalad (0 to 10 scale, 0 is no effect, 10 is complete control)",duck salad; [9],0
same,"Ducksalad plant response rating (0 to 10 scale, 0 is no effect, 10 is complete control)",duck salad; [10],0
same,Ducksalad plant response rating,duck salad; [11],0
same,Ducksalad plant response rating,duck salad; [12],0
same,"Plant response rating, Barnyardgrass (0 to 10 scale, 0 is no effect, 10 is complete control)",bamyardgrass; [9],0
same,"Barnyardgrass plant response rating (0 to 10 scale, 0 is no effect, 10 is complete control)",bamyardgrass; [10],0
same,Barnyardgrass plant response rating,bamyardgrass; [11],0
same,Barnyardgrass plant response rating,bamyardgrass; [12],0
